Laboratory results published in patent US20260317313A1, “DNA Polymerase Theta Inhibitors Containing Non-Saturated 5-Membered Heterocyclic Rings and Use Thereof” (Thomas Jefferson University, priority 2022, published 2026).
Read-outs that look alike come from different tables or passages of the source.

How the values were obtained:
[1] = target: T1, recombinant human Polq polymerase domain (residues 1792-2590) (Homo sapiens, UniProt O75417); assay: Cy5 fluorescence assay of Polq polymerase enzymatic activity; assay type: biochemical; settings: 60 nM primer-template, 50 uM dNTPs, 37° C., 18 min, 2.5% DMSO, triplicate
T1 sequence (O75417 1792-2590): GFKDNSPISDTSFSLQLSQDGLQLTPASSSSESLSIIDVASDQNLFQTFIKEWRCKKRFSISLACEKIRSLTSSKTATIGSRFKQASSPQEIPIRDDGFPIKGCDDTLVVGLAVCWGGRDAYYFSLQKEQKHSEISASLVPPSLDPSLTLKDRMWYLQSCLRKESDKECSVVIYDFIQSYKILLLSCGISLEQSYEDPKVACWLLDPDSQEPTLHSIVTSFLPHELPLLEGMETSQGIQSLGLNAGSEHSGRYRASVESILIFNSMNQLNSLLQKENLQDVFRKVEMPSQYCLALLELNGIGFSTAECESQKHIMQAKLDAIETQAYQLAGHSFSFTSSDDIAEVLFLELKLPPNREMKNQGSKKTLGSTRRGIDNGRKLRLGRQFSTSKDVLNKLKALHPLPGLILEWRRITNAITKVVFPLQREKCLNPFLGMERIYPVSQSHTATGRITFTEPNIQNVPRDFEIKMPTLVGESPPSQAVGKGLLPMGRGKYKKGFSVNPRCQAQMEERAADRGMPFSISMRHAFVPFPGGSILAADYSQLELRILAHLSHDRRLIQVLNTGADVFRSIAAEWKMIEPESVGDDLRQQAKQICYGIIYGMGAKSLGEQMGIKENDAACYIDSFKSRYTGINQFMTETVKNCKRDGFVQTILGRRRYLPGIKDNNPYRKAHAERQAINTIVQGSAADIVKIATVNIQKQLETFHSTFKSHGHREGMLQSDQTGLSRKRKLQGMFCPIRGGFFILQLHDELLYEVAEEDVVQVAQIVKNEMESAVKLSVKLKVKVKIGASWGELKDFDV
Method: The following Cy5 fluorescence assay was used to measure the ability of compounds to inhibit Polq polymerase domain in vitro. The fluorescent based assay was performed as follows: 60 nM of the pre-annealed primer-template containing a 5′ Cy5 fluorophore conjugated template strand (SEQ ID NO 6: 5′-/5Cy5/ […] GGACAG-3′), a downstream complementary oligo conjugated with a 3′ Blackhole quencher (SEQ ID NO 7: 5′-CTAAGCTCACAGTG/3IAbRQSp/-3′) and a primer strand (SEQ ID NO 8: 5′-CTGTCCTGCATGATG-3′) was mixed with 50 uM 2′-deoxyribonucleoside triphosphates (dNTPs), 0.1 mg/mL Bovine serum albumin (BSA), 0.01% NP-40, 10% glycerol, 1 mM dithiothreitol (DTT), 10 mM MgCl2, 25 mM TrisHCl pH 7.8 in the presence of 2.5% DMSO with or without various concentrations (7-point dilution series) of Polq small molecule inhibitors represented by Formula I at 37° C. in a volume of 40 μL.

[2] = tested on: BRCA2-null DLD1 cells; assay: Survival of BRCA2-null DLD1 cells; assay type: cell-based; settings: as compared to BRCA2-WT DLD1 cells; n=3
[3] = tested on: BRCA2-WT HCT116 cells; assay: Survival of BRCA2-WT HCT116 cells; assay type: cell-based; settings: n=3
[4] = tested on: BRCA2-null HCT116 cells; assay: Survival of BRCA2-null HCT116 cells; assay type: cell-based; settings: as compared to BRCA2-WT HCT116 cells; n=3
[5] = tested on: BRCA2-WT DLD1 cells; assay: Survival of BRCA2-WT DLD1 cells; assay type: cell-based; settings: n=3
[6] = Polq IC50, 5 nM Polq polymerase domain

Row | SMILES | IC50 [1, 6] | other results
1 | [2H]C([2H])([2H])N(C(=O)Cc1c(-c2cn[nH]c2)cc(C(F)(F)F)cc1C(F)(F)F)c1ccc(F)cc1 [Example 23, N-(4-fluorophenyl)-N-(methyl-d3)-2-[2-(1H-pyrazol-4-yl)-4,6-bis(trifluoromethyl)phenyl]acetamide] | – | IC50 ([1]; 5 nM Polq polymerase domain, read-out: Polq IC50): 46.8 nM
2 | [2H]C([2H])([2H])N(C(=O)Oc1c(-c2cn(C3CS(=O)(=O)CC3O)nn2)cc(C(F)(F)F)cc1C(F)(F)F)c1ccc(F)c(Cl)c1F (centres unmarked) [Example 24, 2-[1-(4-hydroxy-1,1-dioxo-1λ^6-thiolan-3-yl)-1H-1,2,3-triazol-4-yl]-4,6-bis(trifluoromethyl)phenyl N-(3-chloro-2,4-difluorophenyl)-N-(methyl-d3)carbamate] | 13.6 nM | –
3 | [2H]C([2H])([2H])N(C(=O)Oc1c(-c2cnn(CC(O)CN(C)C)c2)cc(C(F)(F)F)cc1C(F)(F)F)c1ccc(F)cc1 (centres unmarked) [Example 25, 2-{1-[3-(dimethylamino)-2-hydroxypropyl]-1H-pyrazol-4-yl}-4,6-bis(trifluoromethyl)phenyl N-(4-fluorophenyl)-N-(methyl-d3)carbamate] | 24 nM | –
4 | [2H]C([2H])([2H])N(C(=O)Oc1c(-c2cn[nH]c2)cc(C(F)(F)F)cc1C(F)(F)F)c1ccc(F)cc1 [Example 26, 2-(1H-pyrazol-4-yl)-4,6-bis(trifluoromethyl)phenyl 4-fluorophenyl(methyl-d3)carbamate] | 2 nM | survival of BRCA2-null DLD1 cells [2]: significantly reduced; resistance of BRCA2-WT HCT116 cells to Polqi [3]: mostly resistant; survival of BRCA2-null HCT116 cells [4]: significantly reduced; resistance of BRCA2-WT DLD1 cells to Polqi [5]: mostly resistant
5 | [2H]C([2H])([2H])N(C(=O)Oc1c(-c2cnn(CC(N)=O)c2)cc(C(F)(F)F)cc1C(F)(F)F)c1ccc(F)cc1 [Example 27, 2-(1-(2-amino-2-oxoethyl)-1H-pyrazol-4-yl)-4,6-bis(trifluoromethyl)phenyl 4-fluorophenyl(methyl-d3)carbamate] | 1.8 nM | survival of BRCA2-null DLD1 cells [2]: significantly reduced; resistance of BRCA2-WT HCT116 cells to Polqi [3]: mostly resistant; survival of BRCA2-null HCT116 cells [4]: significantly reduced; resistance of BRCA2-WT DLD1 cells to Polqi [5]: mostly resistant
6 | [2H]C([2H])([2H])N(C(=O)Oc1c(-c2cn(C3CN(S(C)(=O)=O)C3)nn2)cc(C(F)(F)F)cc1C(F)(F)F)c1ccc(F)c(Cl)c1F [Example 28, 2-[1-(1-methanesulfonylazetidin-3-yl)-1H-1,2,3-triazol-4-yl]-4,6-bis(trifluoromethyl)phenyl N-(3-chloro-2,4-difluorophenyl)-N-(methyl-d3)carbamate] | 3.2 nM | –
7 | [2H]C([2H])([2H])N(C(=O)Oc1c(-c2cn(CC(O)CNC)nn2)cc(C(F)(F)F)cc1C(F)(F)F)c1ccc(F)cc1 (centres unmarked) [Example 29, 2-{1-[2-hydroxy-3-(methylamino)propyl]-1H-1,2,3-triazol-4-yl}-4,6-bis(trifluoromethyl)phenyl N-(4-fluorophenyl)-N-(methyl-d3)carbamate] | 3.4 nM | –
8 | [2H]C([2H])([2H])N(C(=O)Oc1c(-c2cn(CC(O)CN(C)C)nn2)cc(C(F)(F)F)cc1C(F)(F)F)c1ccc(F)cc1 (centres unmarked) [Example 30, 2-{1-[3-(dimethylamino)-2-hydroxypropyl]-1H-1,2,3-triazol-4-yl}-4,6-bis(trifluoromethyl)phenyl N-(4-fluorophenyl)-N-(methyl-d3)carbamate] | 1.6 nM | –
9 | [2H]C([2H])([2H])N(C(=O)Oc1c(-c2nnco2)cc(C(F)(F)F)cc1C(F)(F)F)c1ccc(F)cc1 [Example 31, 2-(1,3,4-oxadiazol-2-yl)-4,6-bis(trifluoromethyl)phenyl N-(4-fluorophenyl)-N-(methyl-d3)carbamate] | 5.6 nM | –
10 | [2H]C([2H])([2H])N(C(=O)Oc1c(-n2cncn2)cc(C(F)(F)F)cc1C(F)(F)F)c1ccc(F)cc1 [Example 32, 2-(1H-1,2,4-triazol-1-yl)-4,6-bis(trifluoromethyl)phenyl N-(4-fluorophenyl)-N-(methyl-d3)carbamate] | 18 nM | –
11 | [2H]C([2H])([2H])N(C(=O)Oc1c(-c2cn(C3CN(S(=O)(=O)CCN)C3)nn2)cc(C(F)(F)F)cc1C(F)(F)F)c1ccc(F)c(Cl)c1F [Example 33, 2-{1-[1-(2-aminoethanesulfonyl)azetidin-3-yl]-1H-1,2,3-triazol-4-yl}-4,6-bis(trifluoromethyl)phenyl N-(3-chloro-2,4-difluorophenyl)-N-(methyl-d3)carbamate] | 2.9 nM | –
12 | [2H]C([2H])([2H])N(C(=O)Oc1c(-n2cn[nH]c2=O)cc(C(F)(F)F)cc1C(F)(F)F)c1ccc(F)cc1 [Example 34, 2-(5-oxo-4,5-dihydro-1H-1,2,4-triazol-4-yl)-4,6-bis(trifluoromethyl)phenyl N-(4-fluorophenyl)-N-(methyl-d3)carbamate] | 51 nM | –
13 | [2H]C([2H])([2H])N(C(=O)Oc1c(-n2cnn(CC(O)CNC)c2=O)cc(C(F)(F)F)cc1C(F)(F)F)c1ccc(F)cc1 (centres unmarked) [Example 35, 2-{1-[2-hydroxy-3-(methylamino)propyl]-5-oxo-4,5-dihydro-1H-1,2,4-triazol-4-yl}-4,6-bis(trifluoromethyl)phenyl N-(4-fluorophenyl)-N-(methyl-d3)carbamate] | 104 nM | –
14 | CN(C(=O)Oc1c(-c2cn(CCOCCOCCC(=O)O)nn2)cc(C(F)(F)F)cc1C(F)(F)F)c1ccc(F)cc1 [Example 36, 3-(2-(2-(4-(2-(((4-fluorophenyl)(methyl)carbamoyl)oxy)-3,5-bis(trifluoromethyl)phenyl)-1H-1,2,3-triazol-1-yl)ethoxy)ethoxy)propanoic Acid] | 3 nM | –
15 | Cc1ncsc1-c1ccc(CNC(=O)[C@@H]2C[C@@H](O)CN2C(=O)[C@@H](NC(=O)CCOCCOCCn2cc(-c3cc(C(F)(F)F)cc(C(F)(F)F)c3OC(=O)N(C)c3ccc(F)cc3)nn2)C(C)(C)C)cc1 [Example 37, 2-(1-(2-(2-(3-(((S)-1-((2S,4R)-4-hydroxy-2-((4-(4-methylthiazol-5-yl)benzyl)carbamoyl)pyrrolidin-1-yl)-3,3-dimethyl-1-oxobutan-2-yl)amino)-3-oxopropoxy)ethoxy)ethyl)-1H-1,2,3-triazol-4-yl)-4,6-bis(trifluoromethyl)phenyl (4-fluorophenyl)(methyl)carbamate] | 4.6 nM | –
